Assay results as given in PubChem BioAssay (NCI).
Values after ≈ are worked out from the molar mass of the structure shown.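 Each compound was tested at five concentrations against cells in 96-well plates for 48 hours. GI50 is the concentration that inhibits growth by half. At the TGI there is no net growth.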

Test system: NCI-H522 lung
Test: NCI-60 cell line screen, 48 h

Row | Structure (SMILES) | TGI | GI50
1 | Oc1cc(Cl)cc2cccnc12 | 5.32 µM | –
2 | COc1cc(N(CCC#N)CCC#N)ccc1/C(N=Nc1ccc(Cl)cc1)=N/NC(=O)c1cc(Br)ccc1O | > 150 µg/mL | 56.4 µg/mL (≈ 92.6 µM)
3 | O=[N+]([O-])c1ccc2occ3c2c1CCC3 | > 100 µM | –
4 | Cc1c2n(c(=O)[nH]c1=O)C1OC(CO)C(N=[N+]=[N-])C1O2 (centres undefined) | > 100 µM | –
5 | O=C(O)CCNc1ncnc2nc[nH]c12 | > 100 µM | –
6 | Nc1c(C(=O)N/N=C/c2ccccc2)sc(=S)n1-c1ccccc1 | > 100 µM | –

Test system: M14 melanoma
Test: NCI-60 cell line screen, 48 h

Row | Structure (SMILES) | TGI | GI50
7 | Oc1cc(Cl)cc2cccnc12 | > 37.4 µM | –
8 | COc1cc(N(CCC#N)CCC#N)ccc1/C(N=Nc1ccc(Cl)cc1)=N/NC(=O)c1cc(Br)ccc1O | > 150 µg/mL | 58.5 µg/mL (≈ 96 µM)
9 | O=[N+]([O-])c1ccc2occ3c2c1CCC3 | > 100 µM | –
10 | O=C(O)CCNc1ncnc2nc[nH]c12 | > 100 µM | –

Test system: HCC-2998 colon
Test: NCI-60 cell line screen, 48 h

Row | Structure (SMILES) | TGI | GI50
11 | Oc1cc(Cl)cc2cccnc12 | > 70 µM | –
12 | COc1cc(N(CCC#N)CCC#N)ccc1/C(N=Nc1ccc(Cl)cc1)=N/NC(=O)c1cc(Br)ccc1O | 81.8 µg/mL | 33.8 µg/mL (≈ 55.6 µM)
13 | O=[N+]([O-])c1ccc2occ3c2c1CCC3 | > 100 µM | –
14 | O=C(O)CCNc1ncnc2nc[nH]c12 | > 100 µM | –
15 | Nc1c(C(=O)N/N=C/c2ccccc2)sc(=S)n1-c1ccccc1 | > 100 µM | –

Test system: UACC-62 melanoma
Test: NCI-60 cell line screen, 48 h

Row | Structure (SMILES) | TGI | GI50
16 | Oc1cc(Cl)cc2cccnc12 | 7.49 µM | –
17 | COc1cc(N(CCC#N)CCC#N)ccc1/C(N=Nc1ccc(Cl)cc1)=N/NC(=O)c1cc(Br)ccc1O | > 150 µg/mL | 112 µg/mL (≈ 184 µM)
18 | O=[N+]([O-])c1ccc2occ3c2c1CCC3 | > 100 µM | –
19 | Cc1c2n(c(=O)[nH]c1=O)C1OC(CO)C(N=[N+]=[N-])C1O2 (centres undefined) | > 100 µM | –
20 | O=C(O)CCNc1ncnc2nc[nH]c12 | > 100 µM | –
21 | Nc1c(C(=O)N/N=C/c2ccccc2)sc(=S)n1-c1ccccc1 | > 100 µM | –

Test system: MOLT-4 leukemia
Test: NCI-60 cell line screen, 48 h

Row | Structure (SMILES) | TGI | GI50
22 | Oc1cc(Cl)cc2cccnc12 | 3.98 µM | –
23 | COc1cc(N(CCC#N)CCC#N)ccc1/C(N=Nc1ccc(Cl)cc1)=N/NC(=O)c1cc(Br)ccc1O | > 150 µg/mL | 32.9 µg/mL (≈ 54 µM)
24 | O=[N+]([O-])c1ccc2occ3c2c1CCC3 | > 100 µM | –
25 | Cc1c2n(c(=O)[nH]c1=O)C1OC(CO)C(N=[N+]=[N-])C1O2 (centres undefined) | > 100 µM | –
26 | Nc1c(C(=O)N/N=C/c2ccccc2)sc(=S)n1-c1ccccc1 | > 100 µM | –

Test system: SK-MEL-2 melanoma
Test: NCI-60 cell line screen, 48 h

Row | Structure (SMILES) | TGI | GI50
27 | Oc1cc(Cl)cc2cccnc12 | > 100 µM | –
28 | COc1cc(N(CCC#N)CCC#N)ccc1/C(N=Nc1ccc(Cl)cc1)=N/NC(=O)c1cc(Br)ccc1O | > 150 µg/mL | 146 µg/mL (≈ 240 µM)
29 | O=[N+]([O-])c1ccc2occ3c2c1CCC3 | > 100 µM | –
30 | Cc1c2n(c(=O)[nH]c1=O)C1OC(CO)C(N=[N+]=[N-])C1O2 (centres undefined) | > 100 µM | –
31 | O=C(O)CCNc1ncnc2nc[nH]c12 | > 100 µM | –

Test system: ACHN renal
Test: NCI-60 cell line screen, 48 h

Row | Structure (SMILES) | TGI | GI50
32 | Oc1cc(Cl)cc2cccnc12 | > 91.6 µM | –
33 | COc1cc(N(CCC#N)CCC#N)ccc1/C(N=Nc1ccc(Cl)cc1)=N/NC(=O)c1cc(Br)ccc1O | > 150 µg/mL | 86.1 µg/mL (≈ 141 µM)
34 | O=[N+]([O-])c1ccc2occ3c2c1CCC3 | > 100 µM | –
35 | Cc1c2n(c(=O)[nH]c1=O)C1OC(CO)C(N=[N+]=[N-])C1O2 (centres undefined) | > 100 µM | –
36 | O=C(O)CCNc1ncnc2nc[nH]c12 | > 100 µM | –
37 | Nc1c(C(=O)N/N=C/c2ccccc2)sc(=S)n1-c1ccccc1 | > 100 µM | –

Test system: DLD-1 colon
Test: NCI-60 cell line screen, 48 h

Row | Structure (SMILES) | TGI
38 | O=[N+]([O-])c1ccc2occ3c2c1CCC3 | > 100 µM
39 | Cc1c2n(c(=O)[nH]c1=O)C1OC(CO)C(N=[N+]=[N-])C1O2 (centres undefined) | > 100 µM
40 | Nc1c(C(=O)N/N=C/c2ccccc2)sc(=S)n1-c1ccccc1 | > 100 µM

Test system: PC-3 prostate
Test: NCI-60 cell line screen, 48 h

Row | Structure (SMILES) | TGI | GI50
41 | Oc1cc(Cl)cc2cccnc12 | > 100 µM | –
42 | COc1cc(N(CCC#N)CCC#N)ccc1/C(N=Nc1ccc(Cl)cc1)=N/NC(=O)c1cc(Br)ccc1O | > 150 µg/mL | 64.1 µg/mL (≈ 105 µM)
43 | O=C(O)CCNc1ncnc2nc[nH]c12 | > 100 µM | –

Test system: SNB-75 CNS
Test: NCI-60 cell line screen, 48 h

Row | Structure (SMILES) | TGI | GI50
44 | Oc1cc(Cl)cc2cccnc12 | > 100 µM | –
45 | COc1cc(N(CCC#N)CCC#N)ccc1/C(N=Nc1ccc(Cl)cc1)=N/NC(=O)c1cc(Br)ccc1O | 95.1 µg/mL | 25 µg/mL (≈ 41.1 µM)
46 | O=[N+]([O-])c1ccc2occ3c2c1CCC3 | > 100 µM | –
47 | Cc1c2n(c(=O)[nH]c1=O)C1OC(CO)C(N=[N+]=[N-])C1O2 (centres undefined) | > 100 µM | –
48 | O=C(O)CCNc1ncnc2nc[nH]c12 | > 100 µM | –
49 | Nc1c(C(=O)N/N=C/c2ccccc2)sc(=S)n1-c1ccccc1 | > 100 µM | –

Test system: U251 CNS
Test: NCI-60 cell line screen, 48 h

Row | Structure (SMILES) | TGI | GI50
50 | Oc1cc(Cl)cc2cccnc12 | > 47.9 µM | –
51 | COc1cc(N(CCC#N)CCC#N)ccc1/C(N=Nc1ccc(Cl)cc1)=N/NC(=O)c1cc(Br)ccc1O | > 150 µg/mL | 145 µg/mL (≈ 238 µM)
52 | O=[N+]([O-])c1ccc2occ3c2c1CCC3 | > 100 µM | –
53 | Cc1c2n(c(=O)[nH]c1=O)C1OC(CO)C(N=[N+]=[N-])C1O2 (centres undefined) | > 100 µM | –
54 | O=C(O)CCNc1ncnc2nc[nH]c12 | > 100 µM | –
55 | Nc1c(C(=O)N/N=C/c2ccccc2)sc(=S)n1-c1ccccc1 | > 100 µM | –

Test system: NCI-H460 lung
Test: NCI-60 cell line screen, 48 h

Row | Structure (SMILES) | TGI | GI50
56 | Oc1cc(Cl)cc2cccnc12 | 18.6 µM | –
57 | COc1cc(N(CCC#N)CCC#N)ccc1/C(N=Nc1ccc(Cl)cc1)=N/NC(=O)c1cc(Br)ccc1O | > 150 µg/mL | 53.6 µg/mL (≈ 88.1 µM)
58 | O=[N+]([O-])c1ccc2occ3c2c1CCC3 | > 100 µM | –
59 | Cc1c2n(c(=O)[nH]c1=O)C1OC(CO)C(N=[N+]=[N-])C1O2 (centres undefined) | > 100 µM | –
60 | O=C(O)CCNc1ncnc2nc[nH]c12 | > 100 µM | –
61 | Nc1c(C(=O)N/N=C/c2ccccc2)sc(=S)n1-c1ccccc1 | > 100 µM | –

Test system: NCI-H23 lung
Test: NCI-60 cell line screen, 48 h

Row | Structure (SMILES) | TGI | GI50
62 | Oc1cc(Cl)cc2cccnc12 | 33.4 µM | –
63 | COc1cc(N(CCC#N)CCC#N)ccc1/C(N=Nc1ccc(Cl)cc1)=N/NC(=O)c1cc(Br)ccc1O | > 150 µg/mL | > 150 µg/mL
64 | O=[N+]([O-])c1ccc2occ3c2c1CCC3 | > 100 µM | –
65 | Cc1c2n(c(=O)[nH]c1=O)C1OC(CO)C(N=[N+]=[N-])C1O2 (centres undefined) | > 100 µM | –
66 | O=C(O)CCNc1ncnc2nc[nH]c12 | > 100 µM | –
67 | Nc1c(C(=O)N/N=C/c2ccccc2)sc(=S)n1-c1ccccc1 | > 100 µM | –

Test system: SNB-78 CNS
Test: NCI-60 cell line screen, 48 h

Row | Structure (SMILES) | TGI
68 | O=[N+]([O-])c1ccc2occ3c2c1CCC3 | > 100 µM
69 | Cc1c2n(c(=O)[nH]c1=O)C1OC(CO)C(N=[N+]=[N-])C1O2 (centres undefined) | > 100 µM

Test system: SF-539 CNS
Test: NCI-60 cell line screen, 48 h

Row | Structure (SMILES) | TGI | GI50
70 | Oc1cc(Cl)cc2cccnc12 | > 67 µM | –
71 | COc1cc(N(CCC#N)CCC#N)ccc1/C(N=Nc1ccc(Cl)cc1)=N/NC(=O)c1cc(Br)ccc1O | > 150 µg/mL | 73.3 µg/mL (≈ 120 µM)
72 | O=[N+]([O-])c1ccc2occ3c2c1CCC3 | > 100 µM | –
73 | Cc1c2n(c(=O)[nH]c1=O)C1OC(CO)C(N=[N+]=[N-])C1O2 (centres undefined) | > 100 µM | –
74 | Nc1c(C(=O)N/N=C/c2ccccc2)sc(=S)n1-c1ccccc1 | > 100 µM | –

Test system: K-562 leukemia
Test: NCI-60 cell line screen, 48 h

Row | Structure (SMILES) | TGI | GI50
75 | Oc1cc(Cl)cc2cccnc12 | 2.66 µM | –
76 | COc1cc(N(CCC#N)CCC#N)ccc1/C(N=Nc1ccc(Cl)cc1)=N/NC(=O)c1cc(Br)ccc1O | > 150 µg/mL | 86.4 µg/mL (≈ 142 µM)
77 | O=[N+]([O-])c1ccc2occ3c2c1CCC3 | > 100 µM | –
78 | Cc1c2n(c(=O)[nH]c1=O)C1OC(CO)C(N=[N+]=[N-])C1O2 (centres undefined) | > 100 µM | –
79 | O=C(O)CCNc1ncnc2nc[nH]c12 | > 100 µM | –
80 | Nc1c(C(=O)N/N=C/c2ccccc2)sc(=S)n1-c1ccccc1 | > 100 µM | –
